Experimental data reported in US10709769B2, “Use of endostatin peptides for the treatment of fibrosis” (University of Pittsburgh—Of the Commonwealth System of …, priority 2009, dated 2020).

Columns and labels:
[1] = test system: fibrotic lung fibroblasts from patients with IPF; assay: FN and Col1α1 in fibrotic lung fibroblasts without TGF-β stimulation, western blot; format: cell-based, human
Text: FIGS. 1A-1F. ECM production in recombinant endostatin- and endostatin-derived peptide-treated fibroblasts in combination with TGF-β stimulation. A: FN and Col1α1 expression in human normal lung fibroblasts (NL) treated with vehicle (V), rE alone, or both with prior TGF-β stimulation. Proteins were detected western blot. GAPDH was used as a loading control for lysates. B: FN and Col1α1 expression of endostatin polypeptide-treated lung fibroblasts following TGF-β stimulation in primary pulmonary fibroblasts from a healthy control, a patient with SSc, and a patient with IPF. C: Graphical summary of FN and Col1α1 expression in lung fibroblasts obtained using fibroblasts from 4 healthy controls (NL), 3 patients with SSc, and 3 patients with IPF. Intensity of bands was normalized to that of GAPDH and expressed as a ratio to Vehicle (V). Paired-t test was used for statistical analysis. * P<0.04, ** P<0.01. D: Representative result of FN and Col1α1 levels in human skin fibroblasts obtained from a patient with morphea and a patient with SSc. E: Representative result of FN and Col1α1 expression in fibrotic fibroblasts obtained from a patients with IPF treated with V, 5 μg/ml of rE, or endostatin polypeptides alone (left). IPF fibroblasts were treated with different concentrations (5, 10, and 20 μg/ml) of E4. DMSO (V) was added in a volume equivalent to that in the lane corresponding to 20 μg/ml of E4 (right). […]
Cellular lysates were obtained from cultured fibroblasts as previously described (Pilewski et al., Am J Pathol 2005; 166:399-407). […] Cellular lysates were analyzed by western blot. Signals were detected following incubation with horseradish peroxidase-conjugated secondary antibody and chemiluminescence (Perkin Elmer Life Sciences, Inc., Boston, Mass.). The intensity of individual bands with expected molecular sizes was semi-quantitatively analyzed using the image/J® software available at on the internet (/rsb.info.nih.gov/ij/index.html), and normalized to individual GAPDH intensity. […]

[2] = test system: Human umbilical vein endothelial cells (HUVECs); assay: Tubular formation assay in Matrigel; format: cell-based; details: 50 nM, 24 hours
Description: The ability of endostatin peptide to inhibit angiogenesis was examined in tubular formation assay using Matrigel® culture. Human umbilical vein endothelial cells (HUVECs) were maintained in endothelial cell basal medium-2 (EBM-2; Clonetics, San Diego, Calif.) supplemented with EBM-2 MV SingleQuots®. HUVECs (5×10^4) were cultured in duplicate on 24-well Matrigel® plates (BD Biosciences, San Diego, Calif.) alone, or in the presence of rE or E4 peptide (50 nM) in EBM-2 at 37° C. DMSO was used as vehicle control. After 24 hours, images were captured using a […] microscope. The degree of cord formation was quantified by measuring the area occupied by tubes in 6 random fields per well. Three independent experiments were performed.

lysyl oxidase (LOX) = assay: TGFβ-induced LOX production in primary human lung fibroblasts; format: cell-based; details: normal lung fibroblasts passage 4, TGF-β followed 30 minutes later by E4, 48 hrs
Description: FIG. 13. E4 reduces fibrosis in vitro by blocking TGFβ-induced LOX production in primary human lung fibroblasts. Normal lung fibroblasts in passage 4 were treated with vehicle, E4, TGFbeta, or TGFbeta followed 30 min. later by E4. Media conditioned by the fibroblasts were analyzed using Western blot analysis after 48 hour. Lane 1: Vehicle (DMSO); Lane 2: E-4; Lane 3: TGF 3; Lane 4: TGF 3 followed by E4.
E4-mediated reduction of LOX was detected also was detected in vitro. Normal lung fibroblasts in passage 4 were treated with vehicle, E4, TGFβ, or TGF-β followed 30 minutes later by E4 (FIG. 13). Media conditioned by the fibroblasts were analyzed using western blot analysis after 48 hrs.

ID1 = ID1 mRNA real-time PCR in primary human lung fibroblasts; format: cell-based
Description: FIG. 15. E4 reduces fibrosis in vitro by inducing expression of ID1, an inhibitor of TGF β, in primary human lung fibroblasts. Real-time PCR analysis was performed to determine the ID1 mRNA levels under the indicated conditions.

Egr-1 = Egr-1 western blot in primary human lung fibroblasts; format: cell-based; details: TGFβ followed by E4 after 60 minutes, harvested after 24 hours
Description: FIG. 16. E-4 reduces fibrosis in vitro by reducing levels of the master transcription factor Egr-1 in primary human lung fibroblasts. Reduction of Egr-1 levels parallels that of collagen, SMA, and fibronectin. Lane 1: vehicle (DMSO); Lane 2: E4; Lane 3: TGFβ, Lane 4 TGFβ followed by E4 after 60 minutes. The samples were harvested after 24 hours.
E4 also promotes the degradation of ECM components via induction and activation of matrix metalloprotease (MMP-2), an enzyme that degrades several ECM molecules including fibronectin and native and denatured collagens (FIG. 14). In addition, E4 increases levels of inhibitor of differentiation (ID)-1, a transcription factor that inhibits TGF-β effects (see FIG. 15). It was determined in a Western bloat analysis that E4 reduces the levels of the master switch transcription factor, Egr-1 (see FIG. 16) in primary human lung fibroblasts, treated and harvested after 24 hours. The reduction of Egr-1 levels parallels a reduction in collagen, SMA and fibronectin. Egr-1 is known to mediate the effects of several fibrotic agents (including TGF-β and bleomycin).

[3] = no TGF-β, 5, 10 and 20 μg/ml, vs vehicle control

With “H-^133SYCETWRTEAPSATGQASSLLGGRLLGQSAASCHHAYIVLCIENSFMT^180-CONH2 (H-SYCETWRTEAPSATGQASSLLGGRLLGQSAASCHHAYIVLCIENSFMT-NH2; cysteine pairing not given here; UniProt P39060 1704-1751, looked up, fragment) [E4, amino acids 133-180 of human endostatin; differs from E3 by the presence of a carboxy-terminal amide]” the “FN and Col1α1 levels” value ([1]; no TGF-β stimulation, peptide alone) was “decreased”, the Col1α1 levels [1, 3] was “dose-dependently reduced” and the FN levels [1, 3] was “modest effect”. For the same substance, the “inhibition of tubular structure formation” value [2] was “modest”, the “level of LOX (western blot of conditioned media)” value (lysyl oxidase (LOX)) was “significantly reduced” and the “levels of inhibitor of differentiation (ID)-1” value (ID1) was “increases”. The “levels of Egr-1” value (Egr-1) was “reduces”.
